Measurements published in US20200288711A1, “Pyrimidin-4-Carbamate or Urea Derivatives As Herbicides” (Syngenta Participations AG, priority 2017, published 2020).

Key:
Assay type in all cases: in vivo
Setaria faberi (SETFA) [1] = experiment: B1 pre-emergence herbicidal activity; conditions: Test 1a, rate 1000 g/ha, evaluated after 13 days, score 0-5 (5=total damage, 0=no damage)
Method: (§1) Seeds of a variety of test species were sown in standard soil in pots: Triticum aestivium (TRZAW), Avena fatua (AVEFA), Alopecurus myosuroides (ALOMY), Echinochloa crus-galli (ECHCG), Lolium perenne (LOLPE), Zea mays (ZEAMX), Abutilon theophrasti (ABUTH), Amaranthus retroflexus (AMARE) and Setaria faberi (SETFA). After cultivation for one day (pre-emergence) under controlled conditions in a glasshouse (at 24/16° C., day/night; 14 hours light; 65% humidity), the plants were sprayed with an aqueous spray solution derived from the formulation of the technical active ingredient in acetone/water (50:50) solution containing 0.5% Tween 20 (polyoxyethelyene sorbitan monolaurate, CAS RN 9005-64-5). The test plants were then grown in a glasshouse under controlled conditions (at 24/16° C., day/night; 14 hours light; 65% humidity) and watered twice daily. After 13 days, the test was evaluated (5=total damage to plant; 0=no damage to plant).

[2] = system: Echinochloa crus-galli (ECHCG); experiment: B1 pre-emergence herbicidal activity; conditions: Test 1a, rate 1000 g/ha, evaluated after 13 days, score 0-5 (5=total damage, 0=no damage)
Method: as §1

[3] = system: Amaranthus retroflexus (AMARE); experiment: B2 post-emergence herbicidal activity; parameters: key: 5=total damage to plant; 0=no damage to plant; conditions: Test 2a, rate 1000 g/ha, evaluated after 13 days, score 0-5 (5=total damage, 0=no damage)
Method: (§2) Seeds of a variety of test species were sown in standard soil in pots: Triticum aestivium (TRZAW), Avena fatua (AVEFA), Alopecurus myosuroides (ALOMY), Echinochloa crus-galli (ECHCG), Lolium perenne (LOLPE), Zea mays (ZEAMX), Abutilon theophrasti (ABUTH), Amaranthus retroflexus (AMARE) and Setaria faberi (SETFA). After 8 days cultivation (post-emergence) under controlled conditions in a glasshouse (at 24/16° C., day/night; 14 hours light; 65% humidity), the plants were sprayed with an aqueous spray solution derived from the formulation of the technical active ingredient in acetone/water (50:50) solution containing 0.5% Tween 20 (polyoxyethelyene sorbitan monolaurate, CAS RN 9005-64-5). The test plants were then grown in a glasshouse under controlled conditions (at 24/16° C., day/night; 14 hours light; 65% humidity) and watered twice daily. After 13 days, the test was evaluated (5=total damage to plant; 0=no damage to plant).

Lolium perenne (LOLPE) [4] = experiment: B2 post-emergence herbicidal activity; parameters: key: 5=total damage to plant; 0=no damage to plant; conditions: Test 2a, rate 1000 g/ha, evaluated after 13 days, score 0-5 (5=total damage, 0=no damage)
Method: as §2

Zea mays (ZEAMX) [5] = experiment: B2 post-emergence herbicidal activity; parameters: key: 5=total damage to plant; 0=no damage to plant; conditions: Test 2a, rate 1000 g/ha, evaluated after 13 days, score 0-5 (5=total damage, 0=no damage)
Method: as §2

Setaria faberi (SETFA) [6] = experiment: B2 post-emergence herbicidal activity; parameters: key: 5=total damage to plant; 0=no damage to plant; conditions: Test 2a, rate 1000 g/ha, evaluated after 13 days, score 0-5 (5=total damage, 0=no damage)
Method: as §2

[7] = system: Echinochloa crus-galli (ECHCG); experiment: B2 post-emergence herbicidal activity; parameters: key: 5=total damage to plant; 0=no damage to plant; conditions: Test 2a, rate 1000 g/ha, evaluated after 13 days, score 0-5 (5=total damage, 0=no damage)
Method: as §2

[8] = system: Amaranthus retroflexus (AMARE); experiment: B1 pre-emergence herbicidal activity; parameters: key: 5=total damage to plant; 0=no damage to plant; conditions: Test 1a, rate 1000 g/ha, evaluated after 13 days, score 0-5 (5=total damage, 0=no damage)
Method: as §1

Lolium perenne (LOLPE) [9] = experiment: B1 pre-emergence herbicidal activity; parameters: key: 5=total damage to plant; 0=no damage to plant; conditions: Test 1a, rate 1000 g/ha, evaluated after 13 days, score 0-5 (5=total damage, 0=no damage)
Method: as §1

[10] = system: Abutilon theophrasti (ABUTH); experiment: B1 pre-emergence herbicidal activity; parameters: key: 5=total damage to plant; 0=no damage to plant; conditions: Test 1a, rate 1000 g/ha, evaluated after 13 days, score 0-5 (5=total damage, 0=no damage)
Method: as §1

Zea mays (ZEAMX) [11] = experiment: B1 pre-emergence herbicidal activity; parameters: key: 5=total damage to plant; 0=no damage to plant; conditions: Test 1a, rate 1000 g/ha, evaluated after 13 days, score 0-5 (5=total damage, 0=no damage)
Method: as §1

[12] = system: Abutilon theophrasti (ABUTH); experiment: B2 post-emergence herbicidal activity; conditions: Test 2a, rate 1000 g/ha, evaluated after 13 days, score 0-5 (5=total damage, 0=no damage)
Method: as §2

SMILES: Cc1nc(-c2cncc(F)c2)ncc1N(C)C(=O)OC(C)(C)C [Compound E2, tert-butyl N-[2-(5-fluoro-3-pyridyl)-4-methyl-pyrimidin-5-yl]-N-methyl-carbamate]
- Control of weed species after pre-emergence application, SETFA (Setaria faberi (SETFA) [1]): 4
- Control of weed species after pre-emergence application, ECHCG [2]: 2
- Control of weed species after post-emergence application, AMARE [3]: 0
- Control of weed species after post-emergence application, LOLPE (Lolium perenne (LOLPE) [4]): 2
- Control of weed species after post-emergence application, ZEAMX (Zea mays (ZEAMX) [5]): 5
- Control of weed species after post-emergence application, SETFA (Setaria faberi (SETFA) [6]): 5
- Control of weed species after post-emergence application, ECHCG [7]: 5
- Control of weed species after pre-emergence application, AMARE [8]: 0
- Control of weed species after pre-emergence application, LOLPE (Lolium perenne (LOLPE) [9]): 0
- Control of weed species after pre-emergence application, ABUTH [10]: 0
- Control of weed species after pre-emergence application, ZEAMX (Zea mays (ZEAMX) [11]): 4
- Control of weed species after post-emergence application, ABUTH [12]: 1
